# Source: US8772274B1, “Anti-cancer compositions and methods” (The Penn State Research Foundation, priority 2008, dated 2014)
# Structures can show the parent of a compound that is named as a salt. Where two headings read alike, the source gives them in different places.
# Tests used:
# WM115 melanoma cell line = assay: MTS cell viability assay, WM115; details: for IC50: Homo sapiens, WM-115, 24 h
# Method: 5×10^3 cells per well in 100 μl DMEM-10% FBS are grown in a 96-well plate for 36 or 72 hours, respectively for melanoma (UACC 903, 1205 Lu and WM115) and human fibroblast (FF2441) cell lines and treated with either PBS vehicle or increasing concentrations (3.5-21 μM) of PBIT, PBISe, PEIT or PEISe for 24 hours. Cellular viability compared to control treated cells is measured using the MTS assay (Promega, Madison, Wis.). IC50 (μM) values for each compound in respective cell lines is determined from three independent experiments using GraphPad Prism version 4.01 (GraphPad, San Diego, Calif.), bars, SEM.
# Growth inhibitory effects on cultured cells from human vertical growth phase (VGP) melanoma cell line WM115, Lung adenocarcinoma (A549), fibrosarcoma (HT-1080), prostate adenocarcinoma (PC-3), ovarian carcinoma (OVCAR-3), and breast adenocarcinoma (MDA-MB-231) are plated in 96 well plates at a density of 5×10^3 cells/well in 100 μl media. The cells are treated 36 hours later with PBISe (0.19-100 μM), PBIT (10-100 μM), PEIT 10-100 μM), or PEISe (10-100 μM) for 24 h and cell viability measured using MTS assay. Dose response curves for each compound are generated and the IC50 values (μM) determined using GraphPad Prism software. Each experiment is replicated at least 3 times and the average IC50 (μM) values with standard error represented.
# UACC 903 melanoma cells = assay: Cell cycle analysis (propidium iodide, FACScan); assay type: cell-based; details: 3.5 to 21 μM; 24 hours
# Method: Cell cycle analysis is undertaken by growing 1.5×10^6 melanoma cells in 100-mm culture dishes followed by treatment with PBIT or PBISe (3.5 to 21 μM) for 24 hours. Cells are collected and stained using propidium iodide (100 μg/mL; Sigma, St Louis, Mo.), 20 μg/mL Ribonuclease A (Roche, Indianapolis, Ind.) 3 μg/mL Triton X-100 dissolved in 0.1% (W/V) sodium citrate for 30 minutes at 4° C. (Krishan, A., J Cell Biol 1975; 66:188-93). Stained cells are analyzed using the FACScan analyzer (Becton Dickinson, San Jose, Calif.) and data processed using ModFit LT software (Verity Software House, Topsham, Me.).
# [1] = test system: MDA-MB-231 breast adenocarcinoma cells; assay: MTS cell viability assay, MDA-MB-231; assay type: cell-based, human
# Method: (§1) Growth inhibitory effects on cultured cells from human vertical growth phase (VGP) melanoma cell line WM115, Lung adenocarcinoma (A549), fibrosarcoma (HT-1080), prostate adenocarcinoma (PC-3), ovarian carcinoma (OVCAR-3), and breast adenocarcinoma (MDA-MB-231) are plated in 96 well plates at a density of 5×10^3 cells/well in 100 μl media. […] Dose response curves for each compound are generated and the IC50 values (μM) determined using GraphPad Prism software. Each experiment is replicated at least 3 times and the average IC50 (μM) values with standard error represented.
# [2] = test system: OVCAR-3 ovarian carcinoma cells; assay: MTS cell viability assay, OVCAR-3; assay type: cell-based, human
# Method: as §1
# [3] = test system: iNOS (total nitrate+nitrite in Caco-2 cells); assay: Nitrite estimation (nitrate/nitrite colorimetric assay); assay type: cell-based; details: 2-4 μM, 72 hours
# Method: Nitrite content in cell culture media is determined using a nitrate/nitrite colorimetric assay kit (Cayman Chemical Company, Ann Arbor, Mich.) essentially as described in Salvucci, O. et al., Cancer Res 2001; 61:318-26. Caco-2 cells (1×10^6) are plated in 60 mm culture dishes in advanced DMEM containing 10% heat treated FBS for 12 hours, growing cells conditioned with phenol-red free DMEM containing 0.5% FBS for an additional 12 hours. Cells are then treated with increasing concentrations of PBIT (40 and 80 μM) or PBISe (2 and 4 μM) dissolved in phenol-red free DMEM (2 ml) containing 0.5% FBS for 72 hours. Culture supernatants are collected and total nitrite (nitrate+nitrite) measured by incubating 80 μL supernatant with enzyme cofactor mixture (10 μL) and nitrate reductase (10 μL) for 2 hours. Total nitrite is measured by the addition of Griess reagent-I and II (50 μL each). A nitrate standard curve (5-35 μM) is simultaneously prepared. Total nitrite present in media alone is subtracted from all experimental values and represented as micromolar nitrite produced following each treatment.
# [4] = test system: normal human fibroblast FF2441 and UACC 903 cells; assay: Sensitivity of melanoma cells compared to normal cells; assay type: cell-based; details: FF2441 vs UACC 903; 2, 4, 6, 12 and 24 hours
# Excerpt: Sensitivity of melanoma cells to PBISe is compared to normal cells. […] Thus, cultured cancer cells are 2-5 fold more sensitive to PBISe than normal cells.
# [5] = test system: PI3 kinase signaling in Caco-2 cells; assay: Western blot analysis of Caco-2 cell lysates; assay type: cell-based
# Method: For additional Western blot analysis, Caco-2 cell lysates are harvested by addition of lyses buffer containing 50 mM HEPES (pH 7.5), 150 mM NaCl, 10 mM EDTA, 10% glycerol, 1% Triton X-100, 1 mM sodium orthovanadate, 0.1 mM sodium molybdate, 1 mM phenylmethylsulfonyl fluoride, 20 μg/ml aprotinin, and 5 μg/ml leupeptin. Whole cell lysates are centrifuged (≦10,000×g) for 10 minutes at 4° C. to remove cell debris. Protein concentrations are quantitated using the BCA assay (Pierce; Rockford, Ill.), and 30 μg of lysate loaded per lane onto NuPAGE Gels (Life Technologies, Inc. Carlsbad, Calif.). Following electrophoresis, samples are transferred to polyvinylidene difluoride (PVDF) membrane (Pall Corporation, Pensacola, Fla.) and the blots probed with antibodies according to each supplier's recommendations: antibodies to PRAS40 and phosphorylated PRAS40 from Invitrogen (Invitrogen Corporation, Carlsbad, Calif.); antibodies to cyclin D1, p27, p21, and Erk2 from Santa Cruz Biotechnology (Santa Cruz, Calif.); and antibodies to Akt2, phosphorylated-Akt (Ser473), phosphorylated-Erk 1/2 and cleaved PARP from Cell Signaling Technology (Danvers, Mass.). Secondary antibodies conjugated with horseradish peroxidase are obtained from Santa Cruz Biotechnology (Santa Cruz, Calif.). Immunoblots are developed using the enhanced chemiluminescence (ECL) detection system (Pierce Biotechnology, Rockford, Ill.) (FIGS. 6A and 6B).
# [6] = Systemic toxicity assessment, i.p. treatment; assay type: in vivo; details: nude mice, 3 weeks
# Method: Tumor kinetics are measured by subcutaneous injection of 5×10^6 UACC 903 or 2.5×10^61205 Lu cells in 0.2 ml of DMEM containing 10% FBS above left and right rib cages of 4-6 week old female nude mice (Harlan Sprague Dawley, Indianapolis, Ind.). Six days later, a fully vascularized tumor has developed and mice are randomly placed in control DMSO or experimental (PBIT or PBISe) groups (n=5 animals; 10 tumors total) followed by i.p. treatment with PBIT ([…]) or PBISe ([…]; equivalent to 2.5 ppm selenium per 20 g mouse) on Monday, Wednesday and Friday for 3 weeks. Dimensions of developing tumors and body weight are measured.
# Systemic toxicity of PBISe in animals is evaluated in nude mice. Mice are exposed to PBISe or PBIT ([…]), or vehicle DMSO, 3 times per week and animals weighed to ascertain possible toxicity. 4-6 week old female nude mice (Harlan Sprague Dawley, Indianapolis, Ind.) are injected i. p. with either control DMSO vehicle, PBIT or PBISe (0.315 μmoles each) for 3 weeks by following the regime used for tumorigenicity. Blood is then collected from each animal in plasma separator tubes with lithium heparin (BD Microtainer, BD, Franklin Lakes, N.J.) following cardiac puncture and analyzed for SGOT, SGPT, alkaline phosphatase, glucose and creatinine to ascertain liver, heart, kidney and pancreas related toxicity. For morphological examination of blood cells, whole blood is collected in microtainer tubes containing K2EDTA (BD Microtainer, BD, Franklin Lakes, N.J.) and RBC, WBC, lymphocytes, monocytes, eosinophils, platelets, total hemoglobin and hematocrit percentage analyzed. Blood is also microscopically examined for segregates, polychromatin bodies, and smudge cells. A portion of vital organs—liver, heart, kidney, intestine, pancreas and adrenal—from each animal is formalin fixed and paraffin-embedded to examine for toxicity-associated changes in cell morphology and organization following H&E staining. […] Thus, PBISe treatment has negligible associated systemic toxicity at the concentrations examined.
smiles,measurement,setting,value
"N=C(N)[Se]CCc1ccc(CC[Se]C(=N)N)cc1 [PBISe, s,s′-1,4-phenylene-bis(1,2-ethanediyl)bis-isoselenourea dihydrobromide]",IC50,"WM115 melanoma cell line; read-out: IC50, WM115 (Table I)",9.7 ± 1.4 µM
same,IC50,"WM115 melanoma cell line; read-out: Inhibition Cancer Cells IC50, WM115 (Table III)",9.7 ± 1.4 µM
same,"Fold increase in efficacy (PBIT/PBISe), WM115","WM115 melanoma cell line; ratio of IC50 PBIT/PBISe, WM115",>10 fold
same,increase in G2/M cells,UACC 903 melanoma cells,~3 fold
same,sub G0/G1 population,UACC 903 melanoma cells,increased
same,IC50,"[1]; Homo sapiens, MDA-MB-231, 24 h, read-out: Inhibition Cancer Cells IC50, MDA-MB-231 (Table III)",6 ± 0.54 µM
same,"Fold increase in efficacy (PBIT/PBISe), MDA-MB-231","[1]; ratio of IC50 PBIT/PBISe, MDA-MB-231",>16.7 fold
same,IC50,"[2]; Homo sapiens, OVCAR-3, 24 h, read-out: Inhibition Cancer Cells IC50, OVCAR-3 (Table III)",5.3 ± 0.65 µM
same,"Fold increase in efficacy (PBIT/PBISe), OVCAR-3","[2]; ratio of IC50 PBIT/PBISe, OVCAR-3",>18.9 fold
same,total nitrate+nitrite production,[3],reduces
same,fold higher concentrations required to kill fibroblasts compared to melanoma cells,[4],2-5 fold
same,cleaved PARP,[5],increase
same,downstream pPRAS40 level,[5],decreased
same,pAkt and Akt2 levels,[5],decreased
same,"blood parameters (SGOT, SGPT, alkaline phosphatase, blood urea, glucose and creatinine)",[6]; i.p. 0.315 μmoles,"did not detect significant liver, kidney or cardiac related toxicity"
same,histological examination of H&E stained vital organ sections,[6]; i.p. 0.315 μmoles,did not significantly change cell morphology or organ structure
same,body weight during treatment,[6]; i.p. 3 times per week,No significant difference
